Earlier results on two compounds are cited in patent US20210299134A1, “TREATMENT OF B CELL MALIGNANCIES” (MEI Pharma, Inc., priority 2018, published 2021).

The conditions of series [1]: cited from earlier work.
The next series concerns B-cell malignancies. The following applies: a day per week dosing after once daily dosing for two 28-day cycles; preliminary data; cited from earlier work.
A further series deals with TREGs. Particulars: after administration of a single dose; cited from earlier work.

Regarding `CCOc1c([C@H](C)n2nc(C)c3c(N)ncnc32)cc(Cl)c(F)c1[C@@H]1CNC(=O)C1` [parsaclisib], in series [1] (FIG. 6B), the “plasma levels versus tissue levels” value is reported as “plasma approximates tissue levels”. Further, the “plasma levels >IC90, share of time” value in series [1] (once weekly dosing) was 32%. In the series on B-cell malignancies, the “incidence of severe irAEs on IS” value is recorded as “decrease in the incidence of severe irAEs” and the “tumor progression on IS” value is listed as “high rate of tumor progression”.
Regarding denileukin diftitox, the “time to TREGs repopulation” value with TREGs is recorded as “approximately 14 days”.
